Earlier results in patent US5032582A, “Method for treating fungal infections with amphotericin B/cholesterol sulfate composition” (Liposome Technology, Inc., priority 1989, dated 1991).

Settings: in vivo

SMILES: CC(C)CCC[C@@H](C)[C@H]1CC[C@H]2[C@@H]3CC=C4C[C@@H](OS(=O)(=O)[O-])CC[C@]4(C)[C@H]3CC[C@]12C.[Na+] [cholesterol sulfate, cholesterol 3-sulphate, sodium salt]
- toxicity: no known toxicity
